# Test results taken from patent US20210069295A1, “GALECTINS CONTROL MTOR IN RESPONSE TO ENDOMEMBRANE DAMAGE AND PROVIDE A MECHANISM AND TARGET FOR THE TREATMENT OF AUTOPHAGY-RELATED DISEASES” (STC. UNM, priority 2017, published 2021).
# Experiments:
# [1] = test system: mTOR; experiment: mTOR activity by immunoblotting of S6K1 (T389) and ULK1 (S757) phosphorylation in HEK293T cells; assay type: cell-based; details: HEK293T cells, full medium, 1 h
# Description: (§1) (A) Dose-response analysis of mTOR activity in HEK293T cells treated with glycyl-L-phenylalanine 2-naphththylamide (GPN) in full medium for 1 h. mTOR activity was monitored by inununoblotting analysis of S6K1 (T389) and ULK1 (S757) phosphorylation (phosphorylated S6K (T389) and ULK1 (S757) relative to total S6K and ULK1, respectively). (B) Analysis of mTOR activity (as in A) after GPN washout. HEK293T cells were treated with 100 μM GPN for 1 h followed by 1 h washout in full medium. Data, means±SEM (n=3), **p<0.01, ANOVA. (C) Analysis of mTOR activity (as in A) in HEK293T cells treated with increasing doses of silica in full medium for 1 h. (D) HEK293T cells were treated with lysosomal damaging agents (LLOMe, Leu-Leu-OMe) for 1 h in full medium and status of acidified organelles assessed by quantifying LysoTracker Red DND-99 puncta using automated high-content imaging and analysis (HC). None-treated cells were as control (Ctrl). White masks, algorithm defined cell boundaries (primary objects); yellow masks, computer-identified LysoTracker Red puncta (target objects). Data, means±SEM, n≥3 independent experiments (500 primary objects counted per well; ≥5 wells/sample per each experiment), **p<0.01, ANOVA. (E) Analysis of mTOR activity in primary human macrophages treated with GPN. Human peripheral blood monocyte derived macrophages were treated with 100 μM GPN in full medium or starved in EBSS for 1 h, and mTOR activity measured as in A. None-treated cells were as control (Ctrl). (F) Quantification by HC of overlaps between mTOR and LAMP2 (representative images shown in FIG. S1D) in HeLa cells treated with lysosomal damaging agents for 1 h in full medium. Data, means±SEM, n≥3 independent experiments (500 primary objects counted per well; ≥5 wells/sample per each experiment) **p<0.01, ANOVA. (G) Immunofluorescence confocal microscopy visualization of mTOR localization relative to LAMP2-positive lysosomes. […] (H) Analysis of TFEB nuclear translocation in HeLa cells treated with 100 μM GPN in full medium for 1 h, and the nuclear translocation of TFEB was measured by HC (Nuclei, Hoechst 33342, blue pseudocolor; TFEB red fluorescence, Alexa-568). […] White masks, computer algorithm-defined cell boundaries (primary objects); pink masks, computer-identified nuclear TFEB based on the average intensity of Alexa-568 fluorescence. Data, means±SEM, n≥3 independent experiments (500 primary objects counted per well; ≥5 wells/sample per each experiment), **p<0.01, ANOVA. (I) HeLa cells were treated as indicated in full medium for 1 h, and LC3 puncta were quantified by HC. […] Data, means±SEM, n≥3 independent experiments (500 primary objects counted per well; ≥5 wells/sample per each experiment), **p<0.01, ANOVA. […]
# [2] = test system: mTOR; experiment: mTOR localization relative to LAMP2-positive lysosomes (HC and confocal microscopy); assay type: cell-based; details: HeLa cells
# Description: as §1
# [3] = test system: TFEB; experiment: TFEB nuclear translocation by high-content microscopy in HeLa cells; assay type: cell-based; details: 1 h full medium
# Description: (A) Dose-response analysis of mTOR activity in HEK293T cells treated with glycyl-L-phenylalanine 2-naphththylamide (GPN) in full medium for 1 h. mTOR activity was monitored by inununoblotting analysis of S6K1 (T389) and ULK1 (S757) phosphorylation (phosphorylated S6K (T389) and ULK1 (S757) relative to total S6K and ULK1, respectively). (B) Analysis of mTOR activity (as in A) after GPN washout. HEK293T cells were treated with 100 μM GPN for 1 h followed by 1 h washout in full medium. Data, means±SEM (n=3), **p<0.01, ANOVA. (C) Analysis of mTOR activity (as in A) in HEK293T cells treated with increasing doses of silica in full medium for 1 h. (D) HEK293T cells were treated with lysosomal damaging agents (LLOMe, Leu-Leu-OMe) for 1 h in full medium and status of acidified organelles assessed by quantifying LysoTracker Red DND-99 puncta using automated high-content imaging and analysis (HC). […] Data, means±SEM, n≥3 independent experiments (500 primary objects counted per well; ≥5 wells/sample per each experiment), **p<0.01, ANOVA. […] Human peripheral blood monocyte derived macrophages were treated with 100 μM GPN in full medium or starved in EBSS for 1 h, and mTOR activity measured as in A. None-treated cells were as control (Ctrl). […] Data, means±SEM, n≥3 independent experiments (500 primary objects counted per well; ≥5 wells/sample per each experiment) **p<0.01, ANOVA. […]
# [4] = test system: bone marrow-derived macrophages (BMMs); experiment: LysoTracker Red DND-99 staining in bone marrow-derived macrophages (BMMs); assay type: cell-based, murine; details: GPN 400 μM or LLOMe, 1 h
compound,measurement,setting,value
"COC(=O)[C@H](CC(C)C)NC(=O)[C@@H](N)CC(C)C [LLOMe, Leu-Leu-OMe]",mTOR activity (phosphorylation of its substrates S6K1 and ULK1),[1],caused inhibition of mTOR activity
same,mTOR localization after washout,[2]; 2 mM LLOMe 1 h followed by 1 h washout,relocalization of mTOR to lysosomes
same,"mTOR localization (lysosomes vs cytosol, overlap with LAMP2)",[2]; 1 h full medium,translocated from lysosomes to the cytosol
same,TFEB nuclear translocation,[3],translocated to the nucleus from the cytoplasm
same,LysoTracker Red DND-99 staining in BMMs (lysosomal damage),[4],reduced LysoTracker Red DND-99 staining
